Laboratory results reported in patent US4112228A, “7-(D-α-Hydroxy-2-arylacetamido)-3-(2-carboxyalkyl-2,3-dihydro-s-tri azolo-[4,3-b]pyridazin-3-on-6-ylthiomethyl)-3-cephem-4-carboxylic acids and derivatives” (priority 1977, dated 1978).
Converted amounts (≈) assume the structure as drawn. Where two headings read alike, the source gives them in different places.

Key:
E. coli = assay: MIC by Steers' agar dilution method; assay type: cell-based; settings: Escherichia coli, read-out: MIC
Shig. sonnei = assay: MIC by Steers' agar dilution method; assay type: cell-based; settings: Shigella sonnei, MHA
B. anthracis = assay: microbe, parasite or virus in culture; assay type: cell-based; settings: Bacillus anthracis
bacteria of Table 4 = assay: Media effect on MIC (Nutrient, Mueller-Hinton, Heart-Infusion agar); assay type: cell-based; settings: NA, MHA, HIA
St. faecalis = assay: MIC by Steers' agar dilution method; settings: Enterococcus faecalis
Pr. rettgeri = assay: MIC by Steers' agar dilution method; settings: Providencia rettgeri
Enterob. cloacae = assay: MIC by Steers' agar dilution method
Citrobacter sp. = assay: MIC by Steers' agar dilution method

Question: Cn1nnnc1SCC1=C(C(=O)O)N2C(=O)[C@@H](NC(=O)[C@H](O)c3ccccc3)[C@H]2SC1 [Cefamandole, cefamandole, reference compound] was tested. Which MIC (E. coli; Ec-36 A15147 (β-lactamase), MHA, Table 4) did it give?
Answer: The MIC was 3.1 µg/mL (≈ 6.7 µM).

Question: What about the MIC (E. coli; Ec-36 A15147 (β-lactamase), NA, Table 4) of the same compound?
Answer: The MIC was 1.6 µg/mL (≈ 3.46 µM).

Question: And the MIC (E. coli; Ec-36 A15147, MHA, Table 3)?
Answer: The MIC was 1.6 µg/mL (≈ 3.46 µM).

Question: What about the MIC (E. coli; Ec-40 A20361, MHA, Table 3) of the same compound?
Answer: The MIC was 0.8 µg/mL (≈ 1.73 µM).

Question: What about the MIC (E. coli; Ec-44 A9535, MHA, Table 3) of the same compound?
Answer: Its MIC is 0.1 µg/mL (≈ 0.216 µM).

Question: And the MIC (E. coli; Ec-45 A15148, MHA, Table 3)?
Answer: Its MIC is 1.6 µg/mL (≈ 3.46 µM).

Question: And the MIC (E. coli; Ec-46 A15164 (β-lactamase), HIA, Table 4)?
Answer: The MIC was 12.5 µg/mL (≈ 27 µM).

Question: And the MIC (E. coli; Ec-46 A15164 (β-lactamase), MHA, Table 4)?
Answer: The MIC was 12.5 µg/mL (≈ 27 µM).

Question: What about the MIC (E. coli; Ec-46 A15164 (β-lactamase), NA, Table 4) of the same compound?
Answer: The MIC was 25 µg/mL (≈ 54.1 µM).

Question: What about the MIC (E. coli; Ec-46 A15164, MHA, Table 3) of the same compound?
Answer: Its MIC is 12.5 µg/mL (≈ 27 µM).

Question: What about the MIC (E. coli; Ec-47 A15170, MHA, Table 3) of the same compound?
Answer: Its MIC is 50 µg/mL (≈ 108 µM).

Question: What about the MIC (E. coli; Ec-49 A20107, MHA, Table 3) of the same compound?
Answer: The MIC was 0.2 µg/mL (≈ 0.432 µM).

Question: What about the MIC (E. coli; Ec-50 A20109, MHA, Table 3) of the same compound?
Answer: The MIC was 0.8 µg/mL (≈ 1.73 µM).

Question: What about the MIC (E. coli; Ec-51 A20343 (β-lactamase), HIA, Table 4) of the same compound?
Answer: The MIC was 25 µg/mL (≈ 54.1 µM).

Question: And the MIC (E. coli; Ec-51 A20343 (β-lactamase), MHA, Table 4)?
Answer: Its MIC is 25 µg/mL (≈ 54.1 µM).

Question: What about the MIC (E. coli; Ec-51 A20343 (β-lactamase), NA, Table 4) of the same compound?
Answer: The MIC was 12.5 µg/mL (≈ 27 µM).

Question: And the MIC (E. coli; Ec-51 A20343, MHA, Table 3)?
Answer: Its MIC is 12.5 µg/mL (≈ 27 µM).

Question: And the MIC (E. coli; Ec-56 A20365, MHA, Table 3)?
Answer: Its MIC is 12.5 µg/mL (≈ 27 µM).

Question: And the MIC (E. coli; Ec-58 A9675, MHA, Table 3)?
Answer: Its MIC is 1.6 µg/mL (≈ 3.46 µM).

Question: And the MIC (E. coli; Ec-59 A20766, MHA, Table 3)?
Answer: The MIC was 0.8 µg/mL (≈ 1.73 µM).

Question: And the MIC (E. coli; Ec-62 A20895, MHA, Table 3)?
Answer: Its MIC is 0.8 µg/mL (≈ 1.73 µM).

Question: What about the MIC (E. coli; Juhl A15119, MHA, Table 1) of the same compound?
Answer: Its MIC is 0.4 µg/mL (≈ 0.865 µM).

Question: And the MIC (E. coli; Juhl, MHA, Example 10)?
Answer: Its MIC is 0.8 µg/mL (≈ 1.73 µM).

Question: And the MIC (E. coli; NIHJ, MHA, Example 10)?
Answer: The MIC was 0.05 µg/mL (≈ 0.108 µM).

Question: What about the MIC (E. coli; NIHJ, MHA, Table 1) of the same compound?
Answer: Its MIC is 0.025 µg/mL (≈ 0.0541 µM).

Question: What about the MIC (E. coli; strain not named (1st of 3), MHA, Example 10) of the same compound?
Answer: Its MIC is 0.1 µg/mL (≈ 0.216 µM).

Question: What about the MIC (E. coli; strain not named (2nd of 3), MHA, Example 10) of the same compound?
Answer: Its MIC is 0.1 µg/mL (≈ 0.216 µM).

Question: What about the MIC (E. coli; strain not named (3rd of 3), MHA, Example 10) of the same compound?
Answer: The MIC was 1.6 µg/mL (≈ 3.46 µM).

Question: And the MIC (Shig. sonnei; A9516, Table 1)?
Answer: Its MIC is 0.05 µg/mL (≈ 0.108 µM).

Question: What about the MIC (Shig. sonnei; Example 10) of the same compound?
Answer: Its MIC is 0.2 µg/mL (≈ 0.432 µM).

Question: What about the MIC (Shig. sonnei; Ss-1 Yale, Table 3) of the same compound?
Answer: Its MIC is 0.1 µg/mL (≈ 0.216 µM).

Question: And the MIC (B. anthracis; Ba-3 A9504, HIA, Table 4)?
Answer: The MIC was 0.2 µg/mL (≈ 0.432 µM).

Question: And the MIC (B. anthracis; Ba-3 A9504, MHA, Table 4)?
Answer: The MIC was 0.4 µg/mL (≈ 0.865 µM).

Question: And the MIC (B. anthracis; Ba-3 A9504, NA, Table 4)?
Answer: The MIC was 0.4 µg/mL (≈ 0.865 µM).

Question: And the MIC (B. anthracis; MHA, Example 10)?
Answer: The MIC was 0.4 µg/mL (≈ 0.865 µM).

Question: What about the “Media effect on MIC” value (bacteria of Table 4) of the same compound?
Answer: The value was “little media effect”.

Question: What about the MIC (St. faecalis) of the same compound?
Answer: Its MIC is 50 µg/mL (≈ 108 µM).

Question: And the MIC (St. faecalis; MHA, Example 10)?
Answer: The MIC was over 100 µg/mL.

Question: And the MIC (St. faecalis; Sf-3 S. faecalis A9536, HIA, Table 4)?
Answer: The MIC was 100 µg/mL (≈ 216 µM).

Question: And the MIC (St. faecalis; Sf-3 S. faecalis A9536, MHA, Table 4)?
Answer: The MIC was 100 µg/mL (≈ 216 µM).

Question: And the MIC (St. faecalis; Sf-3 S. faecalis A9536, NA, Table 4)?
Answer: Its MIC is over 100 µg/mL.

Question: What about the MIC (Pr. rettgeri; A15167, MHA, Table 1) of the same compound?
Answer: The MIC was 0.2 µg/mL (≈ 0.432 µM).

Question: What about the MIC (Pr. rettgeri; MHA, Example 10) of the same compound?
Answer: Its MIC is 0.4 µg/mL (≈ 0.865 µM).

Question: What about the MIC (Pr. rettgeri; Pr-1 A15167, HIA, Table 4) of the same compound?
Answer: Its MIC is 0.1 µg/mL (≈ 0.216 µM).

Question: And the MIC (Pr. rettgeri; Pr-1 A15167, MHA, Table 3)?
Answer: Its MIC is 0.2 µg/mL (≈ 0.432 µM).

Question: What about the MIC (Pr. rettgeri; Pr-1 A15167, MHA, Table 4) of the same compound?
Answer: Its MIC is 0.2 µg/mL (≈ 0.432 µM).

Question: And the MIC (Pr. rettgeri; Pr-1 A15167, NA, Table 4)?
Answer: The MIC was 0.2 µg/mL (≈ 0.432 µM).

Question: And the MIC (Pr. rettgeri; Pr-2 A9637, MHA, Table 3)?
Answer: The MIC was 0.1 µg/mL (≈ 0.216 µM).

Question: And the MIC (Pr. rettgeri; Pr-4 A20645, MHA, Table 3)?
Answer: The MIC was 0.1 µg/mL (≈ 0.216 µM).

Question: What about the MIC (Pr. rettgeri; Pr-5 A20915, MHA, Table 3) of the same compound?
Answer: Its MIC is 0.8 µg/mL (≈ 1.73 µM).

Question: And the MIC (Pr. rettgeri; Pr-6 A20920, MHA, Table 3)?
Answer: The MIC was 0.2 µg/mL (≈ 0.432 µM).

Question: And the MIC (Enterob. cloacae; A9656, MHA, Table 1)?
Answer: The MIC was 3.1 µg/mL (≈ 6.7 µM).

Question: What about the MIC (Enterob. cloacae; El-1 A9656, HIA, Table 4) of the same compound?
Answer: The MIC was 3.1 µg/mL (≈ 6.7 µM).

Question: What about the MIC (Enterob. cloacae; El-1 A9656, MHA, Table 3) of the same compound?
Answer: The MIC was 3.1 µg/mL (≈ 6.7 µM).

Question: And the MIC (Enterob. cloacae; El-1 A9656, MHA, Table 4)?
Answer: The MIC was 3.1 µg/mL (≈ 6.7 µM).

Question: And the MIC (Enterob. cloacae; El-1 A9656, NA, Table 4)?
Answer: Its MIC is 6.3 µg/mL (≈ 13.6 µM).

Question: And the MIC (Enterob. cloacae; El-2 A20364 (β-lactamase), HIA, Table 4)?
Answer: Its MIC is 100 µg/mL (≈ 216 µM).

Question: What about the MIC (Enterob. cloacae; El-2 A20364 (β-lactamase), MHA, Table 4) of the same compound?
Answer: The MIC was 50 µg/mL (≈ 108 µM).

Question: And the MIC (Enterob. cloacae; El-2 A20364 (β-lactamase), NA, Table 4)?
Answer: The MIC was 6.3 µg/mL (≈ 13.6 µM).

Question: And the MIC (Enterob. cloacae; El-2 A20364, MHA, Table 3)?
Answer: Its MIC is 3.1 µg/mL (≈ 6.7 µM).

Question: What about the MIC (Enterob. cloacae; El-4 A20650, MHA, Table 3) of the same compound?
Answer: The MIC was 1.6 µg/mL (≈ 3.46 µM).

Question: What about the MIC (Enterob. cloacae; El-6 A9657, MHA, Table 3) of the same compound?
Answer: Its MIC is 0.8 µg/mL (≈ 1.73 µM).

Question: What about the MIC (Enterob. cloacae; El-7 A9659, MHA, Table 3) of the same compound?
Answer: The MIC was 0.8 µg/mL (≈ 1.73 µM).

Question: And the MIC (Enterob. cloacae; El-8 A9655, MHA, Table 3)?
Answer: The MIC was 1.6 µg/mL (≈ 3.46 µM).

Question: And the MIC (Enterob. cloacae; El-9 A20021, MHA, Table 3)?
Answer: The MIC was 100 µg/mL (≈ 216 µM).

Question: And the MIC (Enterob. cloacae; El-11 A20344 (β-lactamase), HIA, Table 4)?
Answer: The MIC was over 100 µg/mL.

Question: And the MIC (Enterob. cloacae; El-11 A20344 (β-lactamase), MHA, Table 4)?
Answer: The MIC was over 100 µg/mL.

Question: What about the MIC (Enterob. cloacae; El-11 A20344 (β-lactamase), NA, Table 4) of the same compound?
Answer: The MIC was over 100 µg/mL.

Question: What about the MIC (Enterob. cloacae; El-11 A20344, MHA, Table 3) of the same compound?
Answer: The MIC was over 100 µg/mL.

Question: What about the MIC (Enterob. cloacae; El-12 A21006, MHA, Table 3) of the same compound?
Answer: Its MIC is 3.1 µg/mL (≈ 6.7 µM).

Question: And the MIC (Enterob. cloacae; El-14 A20953, MHA, Table 3)?
Answer: Its MIC is 3.1 µg/mL (≈ 6.7 µM).

Question: What about the MIC (Enterob. cloacae; MHA, Example 10) of the same compound?
Answer: The MIC was 3.1 µg/mL (≈ 6.7 µM).

Question: And the MIC (Citrobacter sp.; Citrobacter)?
Answer: Its MIC is 1.6 µg/mL (≈ 3.46 µM).

Question: What about the MIC (Citrobacter sp.; Cx-2 A20694, MHA, Table 3) of the same compound?
Answer: Its MIC is 1.6 µg/mL (≈ 3.46 µM).

Question: And the MIC (Citrobacter sp.; Cx-3 A20695, MHA, Table 3)?
Answer: The MIC was 1.6 µg/mL (≈ 3.46 µM).
